Source: patent publication US5525328A, “Nanoparticulate diagnostic diatrizoxy ester X-ray contrast agents for blood pool and lymphatic system imaging” (NanoSystems L.L.C., priority 1994, dated 1996)

Key:
[1] = Particle size after autoclaving at 121° C. for 20 min. (heat stability); format: physicochemical
Procedure: (§1) Compound 2 was added to each of 3×1.5 oz brown glass bottles containing approximately 12 ml of zirconium silicate (1.1 mm dia.) beads in an amount sufficient to be 15% (w/v) of the final suspension. Bottle A contained 3% (w/v) Pluronic F-68. Bottle B contained 3% (w/v) Pluronic F108. Bottle C contained 3% (w/v) Tetronic T-908. The resulting suspensions were milled on a roller mill at approximately 150 rpm for a total of 9 days. Estimates of particle size determined at various intervals were as detailed below:
0.1% (w/v) DOSS was added to the F108 and T908 samples for autoclaving as cloud point modifiers.
(§2) Compound 2 was milled with zirconium silicate (1.1 mm dia) beads in the presence of Pluronic F-108 for 3 days. The final particle size was determined to be 235 nm. At this point, sterile PEG 400 was added to the suspension such that at completion, the formulation contained 15% (w/v) WIN 70146, 3% (w/v) Pluronic F-108, and 10% (w/v) PEG 400. This formulation was then autoclaved under standard conditions, i.e., 121° C. for 20 min., resulting in a final particle size of 248 nm.

[2] = Crystal forms / polymorphism on recrystallization; format: physicochemical; conditions: e.g., when recrystallized from various solvents
blood pool = assay: CT imaging, blood pool opacification and clearance; format: in vivo, white New Zealand rabbits
Procedure: (§3) This sample was examined for imaging efficacy at the Center for Imaging and Pharmaceutical Research (CIPR) at the Massachusetts General Hospital in Charlestown, Mass. The sample was injected into white New Zealand rabbits at a dose of 3 ml/kg as a slow bolus injection. At times of 5, 15, 30, 60 and 120 min. post injection, the opacification of the liver, spleen, and blood pool as measured in the aorta and within the left ventricle was determined by computed tomography (CT) using a Toshiba 900S Imager CT scanner and associated software.
(§4) This formulation was evaluated at CIPR for both blood pool and lymphographic imaging in New Zealand White Rabbits using the above-described protocol (3 ml/kg) for blood pool imaging and 2 injections (0.25 ml) per paw for lymphography. […] Scanning was carried out using a Toshiba 900S Imager CT scanner and image density was calculated from iodinated standards imaged simultaneously with the animals.

[3] = Aqueous solubility relative to the butyrate ester; format: physicochemical
lymph = assay: Lymphographic imaging by CT; format: in vivo, New Zealand White Rabbits; conditions: autoclaved Pluronic F-108/PEG 400 formulation; 2 injections (0.25 ml) per paw
Procedure: as §4

[4] = Particle size after storage for 1 additional week at room temperature (shelf stability); format: physicochemical; conditions: with both F108 and T908
Procedure: as §1, with “below: […]” for “below:”

liver = assay: CT imaging, liver opacification and clearance; format: in vivo, white New Zealand rabbits
Procedure: as §3

[5] = Particle size after milling (light scattering); format: physicochemical
Procedure: 15% Compound 2 was milled with 4% Pluronic F-108 in the presence of zirconium silicate (1.1 mm dia) beads for 3 days under aseptic conditions. No additional salts or surfactants were added. The average particle size of the resulting nanoparticle suspension was 162 nm as determined by light scattering.
as §2

spleen = assay: CT imaging, spleen opacification and clearance; format: in vivo, white New Zealand rabbits
Procedure: as §3, with “[…],” for “At times of 5, 15, 30, 60 and 120 min. post injection,”

[6] = 15% Compound 2, 4% Pluronic F-108, 3 ml/kg slow bolus
[7] = 24 hours post injection, 3 ml/kg

SMILES | Stability during autoclaving ([1]; nanoparticulate formulations, conventional heat sterilization) | Crystal forms [2] | Blood pool opacification, duration (blood pool; [6]) | Blood pool opacification, grade (blood pool; [6]) | Clearance from the blood (blood pool; [7]) | Blood pool opacification, duration (blood pool; autoclaved Pluronic F-108/PEG 400 formulation, 3 ml/kg) | Aqueous solubility, times lower than ethyl 2-(3,5-bis(acetylamino)-2,4,6-triiodobenzoyloxy)butyrate [3] | Lymphography level of opacification (lymph) | Lymphography performance (lymph) | Shelf stability [4] | Final particle size after autoclaving ([1]; 15% (w/v) compound, 3% (w/v) Pluronic F-108, 10% (w/v) PEG 400, 121° C. for 20 min.) | Stability to heat autoclaving ([1]; with both F108 and T908) | Liver opacification, duration (liver; [6]) | Liver opacification, grade (liver; [6]) | Clearance from the liver (liver; [7]) | Average particle size ([5]; 15% Compound 2, 4% Pluronic F-108, milled 3 days, light scattering) | Final particle size after milling ([5]; Pluronic F-108, milled 3 days, before PEG 400 and autoclaving) | Spleen opacification, duration (spleen; [6]) | Spleen opacification, grade (spleen; [6]) | Clearance from the spleen (spleen; [7])
CCOC(=O)C(CC)OC(=O)c1c(I)c(NC(C)=O)c(I)c(NC(C)=O)c1I (centres unmarked) [ethyl 2-(3,5-bis(acetylamino)-2,4,6-triiodobenzoyloxy)butyrate, reference compound] | do not exhibit good stability during autoclaving | exhibits multiple crystal forms, i.e., polymorphs |  |  |  |  |  |  |  |  |  |  |  |  |  |  |  |  |  | 
CCCCC(OC(=O)c1c(I)c(NC(C)=O)c(I)c(NC(C)=O)c1I)C(=O)OCC (centres unmarked) [Compound 2, ethyl 2-(3,5-diacetamido-2,4,6-triiodobenzoyloxy)hexanoate] |  |  | > 30 min | excellent | complete clearance | at least 30 min | about 40 times | highest level of opacification noted to date in this indication | excellent lymphography agent | excellent stability to heat autoclaving and shelf stability | 248 nm | excellent stability to heat autoclaving | 120 min | very good | partial clearance | 162 nm | 235 nm | 120 min | very good | partial clearance
